From publication PMC9457746, “Synthesis of Sulfonamides Incorporating Piperidinyl-Hydrazidoureido and Piperidinyl-Hydrazidothioureido Moieties and Their Carbonic Anhydrase I, II, IX and XII Inhibitory Activity” (Molecules, 2022)

Assays:
hCA I = hCA I (Homo sapiens, UniProt P00915); experiment: stopped flow CO2 hydrase assay, hCA I inhibition
Experimental: (§1) An Applied Photophysics stopped-flow instrument has been used for assaying the CA catalyzed CO2 hydration activity using the Khalifah procedure [23]. The used indicator was phenol red (0.2 mM), the absorbance maximum was of 557 nm, and the buffer was 20 mM Hepes (pH 7.5), whereas 20 mM Na2SO4 were employed for maintaining the ionic strength constant. […] Uncatalyzed rates were subtracted from the observed total rates. […] Inhibitor and enzyme solutions were preincubated together for 15 min, for assuring the formation of the E–I complex. The inhibition constants were obtained by non-linear least squares using the Cheng–Prusoff equation, as reported earlier [24, 25, 26] and represent the mean from at least three different determinations.

hCA IX = hCA IX (Homo sapiens, UniProt Q16790); experiment: stopped flow CO2 hydrase assay, hCA IX inhibition
Experimental: as §1

hCA II = hCA II (Homo sapiens, UniProt P00918); experiment: stopped flow CO2 hydrase assay, hCA II inhibition
Experimental: as §1

hCA XII = hCA XII (Homo sapiens, UniProt O43570); experiment: stopped flow CO2 hydrase assay, hCA XII inhibition
hCA XII, sequence (O43570 25-354): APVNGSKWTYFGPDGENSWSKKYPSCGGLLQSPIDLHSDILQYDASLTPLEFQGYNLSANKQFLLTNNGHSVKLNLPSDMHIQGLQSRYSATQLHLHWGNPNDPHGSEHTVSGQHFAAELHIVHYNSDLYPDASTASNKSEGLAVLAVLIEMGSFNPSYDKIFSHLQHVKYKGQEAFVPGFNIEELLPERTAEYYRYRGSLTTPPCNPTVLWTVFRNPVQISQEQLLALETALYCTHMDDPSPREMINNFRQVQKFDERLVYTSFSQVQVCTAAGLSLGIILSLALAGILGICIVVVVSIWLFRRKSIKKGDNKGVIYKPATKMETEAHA
Experimental: as §1

hCA I, sequence (P00915 whole entry): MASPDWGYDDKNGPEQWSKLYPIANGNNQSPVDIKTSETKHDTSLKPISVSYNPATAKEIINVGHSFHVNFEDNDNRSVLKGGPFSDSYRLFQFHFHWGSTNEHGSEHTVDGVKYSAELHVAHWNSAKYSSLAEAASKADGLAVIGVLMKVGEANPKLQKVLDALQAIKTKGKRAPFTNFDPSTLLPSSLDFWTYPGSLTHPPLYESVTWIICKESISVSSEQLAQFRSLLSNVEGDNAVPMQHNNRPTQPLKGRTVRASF

Row | Ki (hCA I) [nM] | melting point [°C] | Ki (hCA IX) [nM] | Ki (hCA II) [nM] | Ki (hCA XII) [nM] | increase in hCA XII activity as compared to the 3,4-dichloro analog (hCA XII; versus 6g) [fold] | hCA IX, hCA XII/hCA I selectivity (hCA IX; hCA IX and hCA XII versus hCA I) | SMILES
1 | 131 | 222 to 223 | 26.1 | 41.6 | 17.7 | – | – | NS(=O)(=O)c1ccc(C(=O)N2CCC(C(=O)NNC(=S)Nc3ccc(Cl)cc3)CC2)cc1 [Compound 6f, N-(4-Chlorophenyl)-2-(1-(4-sulfamoylbenzoyl)piperidine-4-carbonyl)hydrazinecarbothioamide]
2 | 442 | 232 to 233 | 4.7 | 22.4 | 26.9 | – | – | NS(=O)(=O)c1ccc(C(=O)N2CCC(C(=O)NNC(=S)Nc3ccc(Cl)c(Cl)c3)CC2)cc1 [Compound 6g, N-(3,4-Dichlorophenyl)-2-(1-(4-sulfamoylbenzoyl)piperidine-4-carbonyl)hydrazinecarbothioamide]
3 | 229 | 220 to 221 | 18 | 53.4 | 2.6 | ~10 | – | NS(=O)(=O)c1ccc(C(=O)N2CCC(C(=O)NNC(=S)Nc3ccc(Cl)cc3Cl)CC2)cc1 [Compound 6h, N-(2,4-Dichlorophenyl)-2-(1-(4-sulfamoylbenzoyl)piperidine-4-carbonyl)hydrazinecarbothioamide]
4 | 1340 | 179 to 180 | 24.2 | 21.5 | 10 | – | – | NS(=O)(=O)c1ccc(C(=O)N2CCC(C(=O)NNC(=S)Nc3c(Cl)cccc3Cl)CC2)cc1 [Compound 6i, N-(2,6-Dichlorophenyl)-2-(1-(4-sulfamoylbenzoyl)piperidine-4-carbonyl)hydrazinecarbothioamide]
5 | 160 | 214 to 215 | 4.2 | 13.1 | 4.6 | – | about 35 fold | COc1ccccc1NC(=S)NNC(=O)C1CCN(C(=O)c2ccc(S(N)(=O)=O)cc2)CC1 [Compound 6j, N-(2-methoxyphenyl)-2-(1-(4-sulfamoylbenzoyl)piperidine-4-carbonyl)hydrazine-1-carbothioamide]
6 | 146 | 214 to 215 | 25.1 | 11.2 | 29.9 | – | – | COc1cccc(NC(=S)NNC(=O)C2CCN(C(=O)c3ccc(S(N)(=O)=O)cc3)CC2)c1 [Compound 6k, N-(3-methoxyphenyl)-2-(1-(4-sulfamoylbenzoyl)piperidine-4-carbonyl)hydrazine-1-carbothioamide]
7 | 211 | > 250 | 22.1 | 15.1 | 27.8 | – | – | COc1ccc(NC(=S)NNC(=O)C2CCN(C(=O)c3ccc(S(N)(=O)=O)cc3)CC2)cc1 [Compound 6l, N-(4-Methoxyphenyl)-2-(1-(4-sulfamoylbenzoyl)piperidine-4-carbonyl)hydrazinecarbothioamide]
8 | 428 | > 250 | 16.6 | 36.8 | 27.3 | – | – | COc1cc(NC(=S)NNC(=O)C2CCN(C(=O)c3ccc(S(N)(=O)=O)cc3)CC2)cc(OC)c1OC [Compound 6m, 2-(1-(4-Sulfamoylbenzoyl)piperidine-4-carbonyl)-N-(3,4,5-trimethoxyphenyl)hydrazinecarbothioamide]
9 | 431 | 219 to 220 | 6.9 | 15.2 | 4.9 | – | – | NS(=O)(=O)c1ccc(C(=O)N2CCC(C(=O)NNC(=S)Nc3ccccc3F)CC2)cc1 [Compound 6n, N-(2-Fluorophenyl)-2-(1-(4-sulfamoylbenzoyl)piperidine-4-carbonyl)hydrazinecarbothioamide]
10 | 79.6 | 215 to 216 | 20.1 | 23 | 15.9 | – | – | NS(=O)(=O)c1ccc(C(=O)N2CCC(C(=O)NNC(=S)Nc3ccc(F)cc3)CC2)cc1 [Compound 6p, N-(4-Fluorophenyl)-2-(1-(4-sulfamoylbenzoyl)piperidine-4-carbonyl)hydrazinecarbothioamide]
11 | 65.4 | 242 to 243 | 5.9 | 28.2 | 5.6 | – | – | NS(=O)(=O)c1ccc(C(=O)N2CCC(C(=O)NNC(=S)Nc3c(F)cccc3F)CC2)cc1 [Compound 6q, N-(2,6-Difluorophenyl)-2-(1-(4-sulfamoylbenzoyl)piperidine-4-carbonyl)hydrazinecarbothioamide]
12 | 277 | 209 to 210 | 9 | 38.5 | 18.4 | – | – | Cc1ccccc1NC(=S)NNC(=O)C1CCN(C(=O)c2ccc(S(N)(=O)=O)cc2)CC1 [Compound 6r, 2-(1-(4-sulfamoylbenzoyl)piperidine-4-carbonyl)-N-(o-tolyl)hydrazine-1-carbothioamide]
13 | 308 | 233 to 234 | 4.7 | 89.6 | 9.5 | – | – | Cc1cccc(C)c1NC(=S)NNC(=O)C1CCN(C(=O)c2ccc(S(N)(=O)=O)cc2)CC1 [Compound 6u, N-(2,6-Dimethylphenyl)-2-(1-(4-sulfamoylbenzoyl)piperidine-4-carbonyl)hydrazinecarbothioamide]
14 | 198 | > 250 | 24.2 | 71.4 | 25 | – | – | NS(=O)(=O)c1ccc(C(=O)N2CCC(C(=O)NNC(=S)NCc3ccccc3)CC2)cc1 [Compound 6v, N-Benzyl-2-(1-(4-sulfamoylbenzoyl)piperidine-4-carbonyl)hydrazinecarbothioamide]
15 | 178 | 240 to 241 | 31.7 | 29.3 | 29.9 | – | – | COc1ccc(CNC(=S)NNC(=O)C2CCN(C(=O)c3ccc(S(N)(=O)=O)cc3)CC2)cc1 [Compound 6w, N-(4-Methoxybenzyl)-2-(1-(4-sulfamoylbenzoyl)piperidine-4-carbonyl)hydrazinecarbothioamide]
16 | 118 | 183 to 184 | 1.7 | 5.7 | 19.6 | – | – | NS(=O)(=O)c1ccc(C(=O)N2CCC(C(=O)NNC(=S)NC3CCCCC3)CC2)cc1 [Compound 6y, N-Cyclohexyl-2-(1-(4-sulfamoylbenzoyl)piperidine-4-carbonyl)hydrazinecarbothioamide]
